Activity calls are given as the source filed them. The calls are words filed in the database; no cut-off is given here.
How the values were obtained:
Staphylococcus aureus [1] = experiment: Antibacterial activity against methicillin-resistant Staphylococcus aureus SAP0017 measured after overnight incubation by microtitre plate based spectrophotometric method; format: functional
Staphylococcus aureus [2] = experiment: Antibacterial activity against methicillin-resistant Staphylococcus aureus USA300 LAC measured after overnight incubation by microtitre plate based spectrophotometric method; format: functional
Pseudomonas aeruginosa [3] = experiment: Antibacterial activity against Pseudomonas aeruginosa PA14 measured after overnight incubation by microtitre plate based spectrophotometric method; format: functional
Pseudomonas aeruginosa [4] = experiment: Antibacterial activity against Pseudomonas aeruginosa PAO1 measured after overnight incubation by microtitre plate based spectrophotometric method; format: functional
Escherichia coli [5] = experiment: Antibacterial activity against Escherichia coli ATTC 489 measured after overnight incubation by microtitre plate based spectrophotometric method; format: functional
Acinetobacter baumannii [6] = experiment: Antibacterial activity against Acinetobacter baumannii 5015 measured after overnight incubation by microtitre plate based spectrophotometric method; format: functional
Acinetobacter baumannii [7] = experiment: Antibacterial activity against Acinetobacter baumannii 17918 measured after overnight incubation by microtitre plate based spectrophotometric method; format: functional
Klebsiella pneumoniae [8] = experiment: Antibacterial activity against Klebsiella pneumoniae ATTC 13883 measured after overnight incubation by microtitre plate based spectrophotometric method; format: functional
Staphylococcus aureus [9] = experiment: Antibiofilm activity against methicillin-resistant Staphylococcus aureus USA300 LAC incubated for 24 hrs under shaking condition by turbidometric method; format: functional
Pseudomonas aeruginosa [10] = experiment: Antibiofilm activity against Pseudomonas aeruginosa PA14 incubated for 24 hrs under shaking condition by turbidometric method; format: functional
Pseudomonas aeruginosa [11] = experiment: Antibiofilm activity against Pseudomonas aeruginosa PAO1 incubated for 24 hrs under shaking condition by turbidometric method; format: functional
Escherichia coli [12] = experiment: Antibiofilm activity against Escherichia coli ATTC 489 incubated for 24 hrs under shaking condition by turbidometric method; format: functional
Acinetobacter baumannii [13] = experiment: Antibiofilm activity against Acinetobacter baumannii 5015 incubated for 24 hrs under shaking condition by turbidometric method; format: functional
Acinetobacter baumannii [14] = experiment: Antibiofilm activity against Acinetobacter baumannii 17918 incubated for 24 hrs under shaking condition by turbidometric method; format: functional
Klebsiella pneumoniae [15] = experiment: Antibiofilm activity against Klebsiella pneumoniae ATTC 13883 incubated for 24 hrs under shaking condition by turbidometric method; format: functional
Pseudomonas aeruginosa [16] = experiment: Antibiofilm activity against 24 hrs preformed Pseudomonas aeruginosa PA14 biofilm assessed as reduction in biofilm viability at 7.2 to 30.3 uM by TTC assay relative to control; format: functional; settings: dose microM 7.2-30.3
Pseudomonas aeruginosa [17] = experiment: Antibiofilm activity against 24 hrs preformed Pseudomonas aeruginosa PAO1 biofilm assessed as reduction in biofilm viability at 7.2 to 30.3 uM by TTC assay relative to control; format: functional; settings: dose microM 7.2-30.3
Escherichia coli [18] = experiment: Antibiofilm activity against 24 hrs preformed Escherichia coli ATTC 489 biofilm assessed as reduction in biofilm viability at 7.2 to 30.3 uM by TTC assay relative to control; format: functional; settings: dose microM 7.2-30.3
Acinetobacter baumannii [19] = experiment: Antibiofilm activity against 24 hrs preformed Acinetobacter baumannii 5015 biofilm assessed as reduction in biofilm viability at 7.2 to 30.3 uM by TTC assay relative to control; format: functional; settings: dose microM 7.2-30.3
Acinetobacter baumannii [20] = experiment: Antibiofilm activity against 24 hrs preformed Acinetobacter baumannii 17918 biofilm assessed as reduction in biofilm viability at 7.2 to 30.3 uM by TTC assay relative to control; format: functional; settings: dose microM 7.2-30.3
Klebsiella pneumoniae [21] = experiment: Antibiofilm activity against 24 hrs preformed Klebsiella pneumoniae ATTC 13883 biofilm assessed as reduction in biofilm viability at 7.2 to 30.3 uM by TTC assay relative to control; format: functional; settings: dose microM 7.2-30.3
Trypsin [22] = target: T1, Trypsin (Homo sapiens, UniProt P07477+P07478+P35030); experiment: Stability of the compound in pH 8.2 ammonium bicarbonate buffer assessed as trypsin (unknown origin)-mediated compound cleavage at carboxy-terminal side of arginine at 20 ug/ml measured within 30 mins by RP-HPLC analysis; format: ADME, protein assay; settings: pH 8.2, 0.5 h, at 20 µg/mL
Trypsin [23] = target: T1, Trypsin; experiment: Stability of the compound in pH 8.2 ammonium bicarbonate buffer assessed as trypsin (unknown origin)-ILPWK formation at 20 ug/ml measured within 30 mins by MALDI-TOF analysis; format: ADME, protein assay; settings: pH 8.2, 0.5 h, dose 20 µg/ml
Trypsin [24] = target: T1, Trypsin; experiment: Stability of the compound in pH 8.2 ammonium bicarbonate buffer assessed as trypsin (unknown origin)-mediated drug degradation at 20 ug/ml measured up to 120 mins by MALDI-TOF analysis; format: ADME, protein assay; settings: pH 8.2, 2 h, at 20 µg/mL
Trypsin [25] = target: T1, Trypsin; experiment: Stability of the compound in pH 8.2 ammonium bicarbonate buffer assessed as trypsin (unknown origin)-mediated drug degradation at 20 ug/ml measured up to 120 mins by RP-HPLC analysis; format: ADME, protein assay; settings: pH 8.2, 2 h, at 20 µg/mL
Trypsin [26] = target: T1, Trypsin; experiment: Stability of the compound in pH 8.2 ammonium bicarbonate buffer assessed as trypsin (unknown origin)-mediated drug degradation at 20 ug/ml measured after 120 mins by RP-HPLC analysis; format: ADME, protein assay; settings: buffer, pH 8.2, 2 h, at 20 µg/mL
[27] = Aggregation property of the compound in water at 1 mg/ml by turbidimetric method; format: physicochemical; settings: buffer
[28] = Aggregation property of the compound in saline at 1 mg/ml by turbidimetric method; format: physicochemical; settings: buffer
[29] = Aggregation property of the compound in 5% dextrose at 1 mg/ml by turbidimetric method; format: physicochemical
[30] = Aggregation property of the compound in RPMI medium with 1% FBS at 1 mg/ml by turbidimetric method; format: physicochemical
[31] = Aggregation property of the compound in sodium citrate solution at 10 mM by turbidimetric method; format: physicochemical; settings: 10000 µM
[32] = Aggregation property of the compound in sodium phosphate solution at 10 mM by turbidimetric method; format: physicochemical; settings: 10000 µM
[33] = Aggregation property of the compound in sodium nitrate solution at 10 mM by turbidimetric method; format: physicochemical; settings: 10000 µM
[34] = Aggregation of the compound in human PBMC assessed as amorphous morphology at 50 ug/ml measured after 4 hrs by microscopic analysis; format: ADME, tissue-based; settings: dose 50 µg/ml
[35] = Cytotoxicity against human PBMC assessed as reduction in cell viability at 100 ug/ml measured after 24 hrs by LDH assay; format: tissue-based; settings: dose 100 µg/ml
PBMC [36] = experiment: Immunomodulatory activity in human PBMC assessed as increase in MCP1 production at 25 ug/ml measured after overnight incubation by ELISA; format: functional, tissue-based; settings: dose 25.0 µg/ml
PBMC [37] = experiment: Immunomodulatory activity in human PBMC assessed as change in TNFalpha production at 25 ug/ml measured after overnight incubation by ELISA; format: functional, tissue-based; settings: dose 25.0 µg/ml
PBMC [38] = experiment: Immunomodulatory activity in human PBMC assessed as increase in IL-1RA production at 25 ug/ml measured after overnight incubation by ELISA; format: functional, tissue-based; settings: dose 25.0 µg/ml
PBMC [39] = experiment: Immunomodulatory activity in human PBMC assessed as reduction in LPS-induced TNFalpha production at 25 ug/ml measured after overnight incubation by ELISA; format: functional, tissue-based; settings: dose 25.0 µg/ml
[40] = Immunomodulatory activity in human PBMC assessed as increase in LPS-induced MCP1 production at 25 ug/ml measured after overnight incubation by ELISA; format: functional; settings: dose 25 µg/ml
PBMC [41] = experiment: Immunomodulatory activity in human PBMC assessed as reduction in LPS-induced IL1beta production at 25 ug/ml measured after overnight incubation by ELISA; format: functional, tissue-based; settings: dose 25.0 µg/ml
[42] = Toxicity in CD1 mouse assessed as precipitation under the skin at 10 mg/kg, sc measured after 16 hrs; format: organism-based; settings: in vivo
Staphylococcus aureus [43] = experiment: Antibacterial activity against Staphylococcus aureus USA300 LAC infected in CD1 mouse assessed as dermonecrosis area at 7.5 mg/kg, sc administered at infection site measured after 3 days by caliper method (Rvb > 75 mm2); format: functional; settings: time 3 day

Work on H-VRLIVAVRIWRR-NH2 yielded an MIC (Staphylococcus aureus [1]) of 32.5 µM, an MIC (Staphylococcus aureus [2]) of 32.5 µM and an MIC (Pseudomonas aeruginosa [3]) of 32.5 µM. It also gave an MIC (Pseudomonas aeruginosa [4]) of 32.5 µM, an MIC (Escherichia coli [5]) of 65.8 µM and an MIC (Acinetobacter baumannii [6]) of 32.5 µM. It also gave an MIC (Acinetobacter baumannii [7]) of 32.5 µM, an MIC (Klebsiella pneumoniae [8]) of 16.2 µM and an MBEC (Staphylococcus aureus [9]) of 7.8 µM. It also gave an MBEC (Pseudomonas aeruginosa [10]) of 16.2 µM, an MBEC (Pseudomonas aeruginosa [11]) of 16.2 µM and an MBEC (Escherichia coli [12]) of 10.4 µM. The MBEC (Acinetobacter baumannii [13]) was 16.2 µM, the MBEC (Acinetobacter baumannii [14]) was 16.2 µM and the MBEC (Klebsiella pneumoniae [15]) was 10.4 µM. For the same substance, the Activity (Pseudomonas aeruginosa [16]) was 70%, the Activity (Pseudomonas aeruginosa [17]) was 70% and the Activity (Escherichia coli [18]) was 70%. It also gave an Activity (Acinetobacter baumannii [19]) of 70%, an Activity (Acinetobacter baumannii [20]) of 70% and an Activity (Klebsiella pneumoniae [21]) of 70%. For the same substance, the Stabilty (Trypsin [22]) was “Unstable”, the Drug metabolism (Trypsin [23]) was “Metabolite_Detected” and the Stabilty (Trypsin [24]) was “Stable”. The Stabilty (Trypsin [25]) was “Stable”, the Stabilty (Trypsin [26]) was “Unstable” and the Activity [27] was “Not Active”. The Activity [28] was “Not Active”, the Activity [29] was “Not Active” and the Activity [30] was “Active”. For the same substance, the Activity [31] was “Active”, the Activity [32] was “Active” and the Activity [33] was “Active”. The Activity [34] was “Active”, the Activity [35] was “Toxic” and the Activity (PBMC [36]) was “Active”. For the same substance, the Activity (PBMC [37]) was “inactive”, the Activity (PBMC [38]) was “Active” and the Activity (PBMC [39]) was “Active”. The Activity [40] was 35%, the Activity (PBMC [41]) was “Active” and the Activity [42] was “Toxic”. For the same substance, the Activity (Staphylococcus aureus [43]) was 30 mm2.

— ChEMBL document CHEMBL4725351, “Cyclic Derivative of Host-Defense Peptide IDR-1018 Improves Proteolytic Stability, Suppresses Inflammation, and Enhances In Vivo Activity” (J Med Chem, 2020)
